Source: patent publication US20040092498A1, “Substituted glycine derivatives for use as medicaments” (priority 2002, published 2004)

Test system: α2δ subunit
Experiment: radioligand binding assay using [3H]gabapentin and the α2δ subunit
Conditions: [3H]gabapentin radioligand; α2δ subunit derived from porcine brain tissue
Source text: The biological activity of the compounds of the invention may be measured in a radioligand binding assay using [^3H]gabapentin and the α2δ subunit derived from porcine brain tissue (Gee N. S., Brown J. P., Dissanayake V. U. K., Offord J., Thurlow R., Woodruff G. N., J. Biol. Chem., 1996;271:[…]). Results may be expressed in terms of μM or nM α2δ binding affinity.

Row | Activity (binding affinity) | SMILES
1 | 987 nM | NCc1ccc(SCCNCC(=O)O)cc1 [Example 8, [(2-{[4-(Aminomethyl)phenyl]sulfanyl}ethyl)amino]acetic acid]
2 | 198 nM | O=C(O)CNCCSc1ccc(Cl)cc1 [Example 6, ({2-[(4-Chlorophenyl)sulfanyl]ethyl}amino)acetic acid]
3 | 1665 nM | O=C(O)CNCCOc1ccc(Cl)cc1Cl [Example 9, {[2-(2,4-Dichlorophenoxy)ethyl]amino}acetic acid]
4 | 5406 nM | CCOC(=O)CNCCSc1ccc(Cl)cc1 [Example 12, Ethyl ({2-[(4-chlorophenyl)sulfanyl]ethyl}amino)acetate]
5 | 507 nM | O=C(O)CNCCSCc1ccc(Cl)cc1 [Example 10, ({2-[(4-Chlorobenzyl)sulfanyl]ethyl}amino)acetic acid]
6 | 71 nM | O=C(O)CNCCSc1ccc2ccncc2c1 [Example 11, {[2-(7-Isoquinolinylsulfanyl)ethyl]amino}acetic acid]
